“Also recorded” adds a separate entry of the source.
Experiments:
[1] = fresh serum; conditions: Male BALB/c mice, 37 °C, up to 20 hours (table); 21 h (methods)
[2] = test system: SK-BR-3, SK-OV-3, JIMT-1 and MCF7 cells; experiment: Cell viability, all cells of Fig. 4d; assay type: cell-based; conditions: SK-BR-3, SK-OV-3, JIMT-1, MCF7; CellTiter Glo; n = 3 independent experiments
Method: (§1) Cells were seeded in a 96-well white opaque plate at a density of 5 × 10^3/well (CHO, ATCC, CCL-61) or 1 × 10^4/well (MCF7 (ATCC, HTB-22), SK-BR-3 (ATCC, HTB-30), SK-OV-3 (ATCC, HTB-77) or JIMT-1(Beyotime, C6453)). Cells were allowed to attach for 24 h at 37 °C and 5% CO2 in humidified atmosphere. Cells were then treated with serial dilutions of Tra-CAST, Tra-CAST-MMAE and SBA-MMAE or Tra-CASTi, Tra-CASTi-MMAE and DBCO-MMAE for 96 h (BT474, MCF7, SK-BR-3). Cell viability was determined using CellTiter Glo reagents (G7571) and was normalized to the control cells. Data was analyzed by Graphpad software, and the half-maximal effective concentration (EC50) value was calculated by fitting with the log(inhibitor) vs. response module.
10! […]
(§2) Our selected nanobody binds to human serum albumin (HSA)7, The functional impact of inserting CAST to nanobody was evaluated by measuring the affinity to human serum albumin using Biolayer Interferometry at room temperature. […]
Cells were seeded in a 96-well white opaque plate at a density of 5 × 10^3/well (CHO) or 1 × 10^4/well (MCF7, SK-BR-3, SK-OV-3 or JIMT-1). […] Cell viability was determined using CellTiter Glo reagents (G7571) and was normalized to the control cells. Data was analyzed by Graphpad software, and the half-maximal effective concentration (EC50) value was calculated by fitting with the log(inhibitor) vs. response module. […]

[3] = mouse plasma; conditions: Male BALB/c mice, 37 °C, up to 144 h
[4] = 10 mM cysteine in PBS; conditions: 95 °C, up to 1 hour
[5] = PBS; conditions: 95 °C, up to 1 hour
[6] = 20 mM glutathione, PBS (pH 7.4); conditions: 37 °C, up to 22 h
[7] = test system: CHO, MCF7, SK-BR-3 cells; experiment: Cell viability, all cell lines of Supplementary Fig. 38; assay type: cell-based; conditions: 96 h, CellTiter Glo
Method: as §1
Deconvolutedmass (Da) Deconvolutedmass (Da)
Supplementary Figure 37. ESI ion series/deconvolution MS spectra: reactions between […]
trastuzumab-CAST and 1C and SBA-MMAE. a. […]
as §2
Cells were seeded in a 96-well white opaque plate at a density of 5 × 10^3/well (CHO) or 1 × 10^4/well (MCF7, SK-BR-3, SK-OV-3 or JIMT-1). […] Cell viability was determined using CellTiter Glo reagents (G7571) and was normalized to the control cells. Data was analyzed by […]

Substance | cleaved bond [1] | also measured
Phenyl-PEG2-SPG-IKAQDDHAA | I-K, 3 hours; also recorded: G-I, 3 hours; also recorded: A-Q, 3 hours; also recorded: P-G, 3 hours | –
DBCO-PEG3-Glu-Val-Cit-PAB-MMAE [DBCO-MMAE] | – | toxicity towards all cells [2]: minimal toxicity
Phenyl-PEG2-SPG-NAPDDHAA | G-N, 20 hours; also recorded: P-G, 20 hours | –
Phenyl-PEG2-SPG-IAQDDHAA | G-I, 3 hours | –
Phenyl-PEG2-SPG-LKQDDHAA | G-L, 3 hours | –
Phenyl-PEG2-FFKKDDHAA | – | cleaved bond [3]: F-K, 18 h; also recorded: F-F, 48 h; fragment found [3]: Phenyl-PEG2-FFKK, 48 h
Phenyl-PEG2-SPG-SHAQDDHAA | G-S, 3 hours; also recorded: P-G, 3 hours | –
Phenyl-PEG2-SPG-MEQDDHAA | G-M, 3 hours; also recorded: P-G, 3 hours | –
Phenyl-PEG2-IAPDDHAA | – | not cleaved [3]: remained intact following incubation in plasma for 144 h
Phenyl-PEG2-SPG-SKAQDDHAA | G-S, 3 hours; also recorded: P-G, 3 hours | –
Phenyl-PEG2-SPG-NEQDDHAA | P-G, 3 hours; also recorded: G-N, 20 hours | –
Phenyl-PEG2-SPG-IAPDDHAA | G-I, 3 hours; also recorded: D-D, 20 hours; also recorded: P-G, 20 hours | –
DLAAEIAKHCG | – | fragment found [4]: Maleimide hydrolysis byproduct, 1h; also recorded: SM:DLAAEIAKHCG, 1h; fragment found [5]: Maleimide hydrolysis byproduct, 1h
WCGIAPDDHAA [maleimide-WCGIAPDDHAA] | – | fragment found [6]: WCGIAPDDHAA, 22 h
styrylboronic acid-Val-Cit-PAB-monomethyl auristatin E [SBA-MMAE] | – | toxicity in all cell lines at the tested concentrations [7]: displayed toxicity and could not effectively distinguish HER2-negative MCF7 cells or HER2-positive SK-BR-3 cells
Phenyl-PEG2-SPG-NKKDDHAA | G-N, 3 hours | –
Phenyl-PEG2-SPG-KAQDDHAA | P-G, 3 hours; also recorded: G-K, 3 hours | –
Phenyl-PEG2-SPG-INDPDDHAA | P-G, 3 hours; also recorded: G-I, 20 hours | –
WCGIAPDDHAA [maleimide modified WCGIAPDDHAA] | – | fragment found [6]: released free peptide WCGIAPDDHAA, 22 h; also recorded: maleimide hydrolysis byproducts, 22 h
Phenyl-PEG2-SPG-HAQDDHAA | P-G, 3 hours | –
Phenyl-PEG2-SPG-NAQDDHAA | G-N, 3 hours; also recorded: P-G, 3 hours | –
Phenyl-PEG2-SPG-FFKKDDHAA | P-G, 3 hours; also recorded: F-K, 3 hours; also recorded: G-F, 3 hours | –

From publication PMC10698186 (Nature Communications, 2023)
